System: binding site 2 of the sodium channel (BTX binding site)
Test: Binding to the sodium channel, binding site 2 (BTX binding), [3H]-batrachotoxinin A20 α-benzoate displacement
Conditions: rat cerebrocortex synaptosomes; for BTX binding (10 μM): 10 μM test compound, ligand [3H]-batrachotoxinin A20 α-benzoate 10 nM, 120 min at 25° C.

**Q.** For `COC(=O)c1cc(C(Nc2ccc(Cl)cc2F)C(=O)c2ccccc2)oc1C` (centres unmarked) [C, 5-[1-(4-Chloro-2-fluoro-phenylamino)-2-oxo-2-phenyl-ethyl]-2-methyl-furan-3-carboxylic acid methyl ester], which “BTX binding (10 μM)” value is on record?
**A.** 57%

**Q.** With “[3H]-batrachotoxinin A20 α-benzoate [reference compound]” as the molecule, how does the Kd (radioligand [3H]-batrachotoxinin A20 α-benzoate, N=2, mean±SEM, read-out: KD value for that binding site) read?
**A.** 24.6 ± 1.56 nM

**Q.** For `CCOC(=O)c1cc(C(Nc2ccc(Cl)cc2C)C(=O)c2ccccc2)oc1C` (centres unmarked) [D, 5-[1-(4-Chloro-2-methyl-phenylamino)-2-oxo-2-phenyl-ethyl]-2-methyl-furan-3-carboxylic acid ethyl ester], which “BTX binding (10 μM)” value is on record?
**A.** 37%

**Q.** Which “BTX binding (10 μM)” value does the source give for “5-[1-(2-Chloro-phenylamino)-2-oxo-2-phenyl-ethyl]-2-methyl-furan-3-carboxylic acid ethyl ester” here?
**A.** 40%

**Q.** `COC(=O)c1cc(C(Nc2ccc(Cl)cc2C)C(=O)c2ccccc2)oc1C` (centres unmarked) [Example B, 5-[1-(4-Chloro-2-methyl-phenylamino)-2-oxo-2-phenyl-ethyl]-2-methyl-furan-3-carboxylic acid methyl ester] was tested. Which “BTX binding (10 μM)” value did it give?
**A.** 55%

Source: patent publication US7317034B2, “Substituted C-furan-2-yl-methylamine and C-thiophen-2-yl-methylamine compounds” (Gruenenthal GmbH, priority 2001, dated 2008)
